From US20050239872A1, “1,5-distributed pyrrolid-2-one derivatives for use as ep4 receptor agonists in the teatment of eye diseases such as glaucoma” (priority 2002, published 2005) come the findings set out here.

The nature of data set [1]: Oral pharmacokinetics in rats. Format: in vivo.
For data set [2], the system named is more than 80 receptors and enzymes. Briefly: PanLab screening against more than 80 receptors and enzymes. Conditions: concentrations greater than 10 μM.

On to `O=C1CC[C@H](/C=C/C(O)C(F)(F)c2ccccc2)N1CCCCCCc1nnn[nH]1` (stereo partly drawn) [Compound 7, (5R)-5[(1E)-4,4-difluoro-3-hydroxy-4-phenylbut-1-enyl]-1-[6-(1H-tetraazol-5-yl)hexyl]pyrrolidin-2-one], for which, in data set [1], the “terminal elimination half life” value is recorded as “good”. Besides, in data set [1] (oral), the oral bioavailability entry was “good”. Further, the “activity in PanLab screening” value in data set [2] is on record as “no significant activities”.
